Data on one compound can be found in US20180371018A1, “POLYPEPTIDE COMPOUND, PREPARATION METHOD THEREFOR AND USE THEREOF” (priority 2015, published 2018).

Structures are written as SMILES.

For assay [1], the system named is Hepatoma 22 (H22) solid tumors. Description: Inhibition of Hepatoma 22 (H22) solid tumors in mice, peptides with different number of copies. It counts as in vivo, Mus Musculus Balb/c female mice. The following applies: positive medicine, 20 mg/kg, intraperitoneal injection, 1 time/day, 5 days.
In assay [2] the test system is Hepatoma 22 (H22) solid tumors. Description: Inhibition of Hepatoma 22 (H22) solid tumors in mice, five-copy peptides. It counts as in vivo, Mus Musculus Balb/c female mice. The following applies: positive medicine, 20 mg/kg, intraperitoneal injection, 1 time/day, 5 days.

For `O=c1[nH]cc(F)c(=O)[nH]1` [Peptide 5-FU, 5-fluorouracil], in assay [1], the “Tumor inhibition rate (%)” value is reported as 51.62% and the “Tumor weight” value is recorded as 1.135 ± 0.248 g. In addition, in assay [2], the “Average tumor weight” value was determined as 1.135 ± 0.248 g and the “Tumor inhibition rate (%)” value is reported as 51.62%.
